Experimental data from patent publication US20110172433A1, “NOVEL IMINO DERIVATIVES, METHODS FOR PRODUCING THE SAME AND INSECTICIDES CONTAINING THE SAME” (priority 2008, published 2011).

Tests used:
[1] = test system: cotton aphid, green peach aphid, greenhouse whitefly, two-spotted spider mite; conditions: in vivo
greenhouse whitefly = assay: Greenhouse whitefly controlling effect (cucumber dip); type: in vivo, Trialeurodes vaporariorum; conditions: wettable powder per Formulation Example 2, active ingredient 100 μg/ml, 25° C., after 120 hours
Experimental: This was allowed to be inhabited with 20 adult insects of the greenhouse whitefly, covered with the stopper, and allowed to stand in a room whose temperature was constant at 25° C. After 120 hours, the number of viable insects was counted.
The overground part of the 1-leaf stage cucumber was dipped in a 100 μg/ml treatment solution obtained by a 5000-fold dilution with water of the prepared wettable powder, and air-dried, and then transferred to a plastic container having a stopper. This was allowed to be inhabited with 20 adult insects of the greenhouse whitefly, covered with the stopper, and allowed to stand in a room whose temperature was constant at 25° C. After 120 hours, the number of viable insects was counted.

SMILES | pest controlling effects [1] | lethality (greenhouse whitefly)
O=C(N=C1SCCN1Cc1ccc(Cl)nc1)C(Cl)(Cl)Cl [Compound 5] | excellent pest controlling effects | –
CCCOC(=O)N=C1SCCN1Cc1ccc(Cl)nc1 [Compound 43] | excellent pest controlling effects | –
CC(C)OC(=O)N=C1SCCN1Cc1ccc(Cl)nc1 [Compound 44] | excellent pest controlling effects | –
O=C(N=C1SCCN1Cc1ccc(Cl)nc1)OCCCl [Compound 45] | excellent pest controlling effects | –
CC(=O)N=C1SCCN1Cc1ccc(Cl)nc1 [Compound 72] | excellent pest controlling effects | –
O=C(CCl)N=C1SCCN1Cc1ccc(Cl)nc1 [Compound 73] | excellent pest controlling effects | –
O=C(N=C1SCCN1Cc1ccc(Cl)nc1)C(F)F [Compound 76] | excellent pest controlling effects | –
COCC(=O)N=C1SCCN1Cc1ccc(Cl)nc1 [Compound 78] | excellent pest controlling effects | –
CSCCC(=O)N=C1SCCN1Cc1ccc(Cl)nc1 [Compound 90] | excellent pest controlling effects | –
O=C(N=C1SCCN1Cc1ccc(Cl)nc1)C1CC1 [Compound 92] | excellent pest controlling effects | –
O=C(N=C1SCCN1Cc1ccc(Cl)nc1)C1CC1(F)F (stereo not shown) [Compound 103] | excellent pest controlling effects | –
CONC(=O)N=C1SCCN1Cc1ccc(Cl)nc1 [Compound 106] | excellent pest controlling effects | –
CCOC(=O)N=C1SCCN1Cc1ccc(Cl)nc1 [Compound 113] | excellent pest controlling effects | –
O=C(N=C1SCCN1Cc1ccc(Cl)nc1)OCCF [Compound 114] | excellent pest controlling effects | –
O=C(N=C1SCCN1Cc1ccc(Cl)nc1)OCC(F)F [Compound 115] | excellent pest controlling effects | –
COCCOC(=O)N=C1SCCN1Cc1ccc(Cl)nc1 [Compound 118] | excellent pest controlling effects | –
CSCCOC(=O)N=C1SCCN1Cc1ccc(Cl)nc1 [Compound 119] | excellent pest controlling effects | –
O=C(N=C1SCCN1Cc1ccc(Cl)nc1)OCCCF [Compound 122] | excellent pest controlling effects | –
C=CCOC(=O)N=C1SCCN1Cc1ccc(Cl)nc1 [Compound 126] | excellent pest controlling effects | –
CCCCOC(=O)N=C1SCCN1Cc1ccc(Cl)nc1 [Compound 128] | excellent pest controlling effects | –
CC(C)COC(=O)N=C1SCCN1Cc1ccc(Cl)nc1 [Compound 129] | excellent pest controlling effects | –
CCC(C)OC(=O)N=C1SCCN1Cc1ccc(Cl)nc1 (stereo not shown) [Compound 130] | excellent pest controlling effects | –
CC(C)=CCOC(=O)N=C1SCCN1Cc1ccc(Cl)nc1 [Compound 135] | excellent pest controlling effects | –
CCCCCOC(=O)N=C1SCCN1Cc1ccc(Cl)nc1 [Compound 136] | excellent pest controlling effects | –
O=C(N=C1SCCN1Cc1ccc(Cl)nc1)OCC1CC1 [Compound 139] | excellent pest controlling effects | –
O=C(N=C1SCCN1Cc1ccc(Cl)nc1)OCC1CCOC1 (stereo not shown) [Compound 144] | excellent pest controlling effects | –
O=C(N=C1SCCN1Cc1ccc(Cl)nc1)OC1CCOCC1 [Compound 146] | excellent pest controlling effects | –
O=C(/N=C1\SCCN1Cc1ccc(Cl)nc1)C(F)(F)F [Formula (12)] | – | 25%
